The series deals with CD137 (Homo sapiens, UniProt Q07011). Put plainly: CD137 reporter assay, co-culture with Nectin-4 tumour cells.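 As to all read-outs here: jurkat reporter cells co-cultured with tumour cells and test article for 6 h, luminescence signal relative to Jurkat plus tumour cells lacking test article.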 The class given is cell-based. Set-up: host or cells: Jurkat reporter cells. To be noted: for fold induction / Fold Induction over Background: tumour target Nectin4, co-culture with H1376, 6 h; for fold induction: read-out: Fold Induction over Background.

SMILES strings stand for the structures.

This is an account of results in patent publication US11453703B2, “Heterotandem bicyclic peptide complexes” (BicycleTX Limited, priority 2018, dated 2022).

CD137, sequence (Q07011 24-255): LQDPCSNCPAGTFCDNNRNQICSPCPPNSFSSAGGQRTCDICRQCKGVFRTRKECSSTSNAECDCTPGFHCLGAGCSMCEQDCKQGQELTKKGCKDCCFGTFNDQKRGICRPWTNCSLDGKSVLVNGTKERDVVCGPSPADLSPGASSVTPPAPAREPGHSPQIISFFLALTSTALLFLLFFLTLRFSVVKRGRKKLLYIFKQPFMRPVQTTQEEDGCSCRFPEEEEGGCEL
Method: Culture medium referred to as R1 media is prepared by adding 1% FBS to RPMI-1640 (component of Promega kit CS196005). Serial dilutions of test articles in R1 are prepared in a sterile 96 well-plate. Use 25 μl per well of test articles or R1 (as a background control) to designated wells in white cell culture plate. Tumour cells* are harvested and resuspended at a concentration of 400,000 cells/mL in R1 media. Twenty five (25) μL/well tumour cells are used in white cell culture plate. Jurkat cells (Promega kit CS196005, 0.5 mL) are thawed in the water bath and then added to 5 ml pre-warmed R1 medium. Twenty five (25) μL/well Jurkat cells are used in white cell culture plate. Incubate the cells and test articles for 6h at 37° C., 5% CO2. At the end of 6 h, add 75 μl/well Bio-Glo™ (Promega) and incubate for 10 min before reading luminescence in a plate reader (Clariostar, BMG). The fold change relative to cells (Jurkat cells+Cell line used in co-culture) is calculated and plotted in GraphPad Prism as log(agonist) vs response to determine EC50 (nM) and Fold Induction over background (Max)

Take `CCCC[C@@H]1NC(=O)[C@H](Cc2ccc(O)cc2)NC(=O)[C@@H]2CCCN2C(=O)[C@H](CC(=O)O)NC(=O)[C@H](C)NC(=O)[C@H](Cc2ccccc2)NC(=O)[C@@H]2CSCCC(=O)N3CN(CN(C3)C(=O)CCSC[C@@H](C(=O)N[C@@H](CNC(=O)CCc3cn(CCOCCOCCOCCOCCOCCOCCOCCOCCOCCOCCNC(=O)N[C@H]4CSCCC(=O)N5CN6CN(C5)C(=O)CCSC[C@H](NC(=O)[C@@H](CC(=O)O)NC(=O)[C@H](Cc5cccc7ccccc57)NC(=O)[C@@H]5CCCN5C4=O)C(=O)N[C@@H](CCSC)C(=O)N[C@@H](CCCCNC(=N)N)C(=O)N[C@@H](CC(=O)O)C(=O)N[C@@H](Cc4c[nH]c5ccccc45)C(=O)N[C@@H](CO)C(=O)N[C@@H]([C@@H](C)O)C(=O)N4CCC[C@H]4C(=O)N4C[C@H](O)C[C@H]4C(=O)N[C@@H](Cc4c[nH]c5ccccc45)C(=O)N[C@H](C(N)=O)CSCCC6=O)nn3)C(N)=O)NC1=O)C(=O)CCSC[C@H](NC(=O)[C@H](C)NC(C)=O)C(=O)N[C@@H]([C@@H](C)CC)C(=O)N[C@@H](CCC(=O)O)C(=O)N[C@@H](CCC(=O)O)C(=O)NCC(=O)N[C@@H](CCC(N)=O)C(=O)N[C@@H](Cc1ccc(O)cc1)C(=O)N2` [BCY9399]: the fold induction was found to be 13.

`CCCC[C@@H]1NC(=O)[C@H](Cc2ccc(O)cc2)NC(=O)[C@@H]2CCCN2C(=O)[C@H](CC(=O)O)NC(=O)[C@H](C)NC(=O)[C@H](Cc2ccccc2)NC(=O)[C@@H]2CSCCC(=O)N3CN(CN(C3)C(=O)CCSC[C@@H](C(=O)N[C@@H](CNC(=O)CCc3cn(CCOCCOCCOCCOCCOCCOCCOCCOCCOCCOCCOCCOCCOCCOCCOCCOCCOCCOCCOCCOCCOCCOCCOCCNC(=O)N[C@H]4CSCCC(=O)N5CN6CN(C5)C(=O)CCSC[C@H](NC(=O)[C@@H](CC(=O)O)NC(=O)[C@H](Cc5cccc7ccccc57)NC(=O)[C@@H]5CCCN5C4=O)C(=O)N[C@@H](CCSC)C(=O)N[C@@H](CCCCNC(=N)N)C(=O)N[C@@H](CC(=O)O)C(=O)N[C@@H](Cc4c[nH]c5ccccc45)C(=O)N[C@@H](CO)C(=O)N[C@@H]([C@@H](C)O)C(=O)N4CCC[C@H]4C(=O)N4C[C@H](O)C[C@H]4C(=O)N[C@@H](Cc4c[nH]c5ccccc45)C(=O)N[C@H](C(N)=O)CSCCC6=O)nn3)C(N)=O)NC1=O)C(=O)CCSC[C@H](NC(=O)[C@H](C)NC(C)=O)C(=O)N[C@@H]([C@@H](C)CC)C(=O)N[C@@H](CCC(=O)O)C(=O)N[C@@H](CCC(=O)O)C(=O)NCC(=O)N[C@@H](CCC(N)=O)C(=O)N[C@@H](Cc1ccc(O)cc1)C(=O)N2` [BCY9400]: the fold induction was determined as 13.

`CCCC[C@@H]1NC(=O)[C@H](Cc2ccc(O)cc2)NC(=O)[C@@H]2CCCN2C(=O)[C@H](CC(=O)O)NC(=O)[C@H](C)NC(=O)[C@H](Cc2ccccc2)NC(=O)[C@@H]2CSCCC(=O)N3CN(CN(C3)C(=O)CCSC[C@@H](C(=O)N[C@@H](CNC(=O)CCc3cn(CCCNC(=O)CN(C)C(=O)CN(C)C(=O)CN(C)C(=O)CN(C)C(=O)CN(C)C(=O)CCOCCOCCOCCOCCOCCOCCOCCOCCOCCOCCOCCOCCOCCOCCOCCNC(=O)N[C@H]4CSCCC(=O)N5CN6CN(C5)C(=O)CCSC[C@H](NC(=O)[C@@H](CC(=O)O)NC(=O)[C@H](Cc5cccc7ccccc57)NC(=O)[C@@H]5CCCN5C4=O)C(=O)N[C@@H](CCSC)C(=O)N[C@@H](CCCCNC(=N)N)C(=O)N[C@@H](CC(=O)O)C(=O)N[C@@H](Cc4c[nH]c5ccccc45)C(=O)N[C@@H](CO)C(=O)N[C@@H]([C@@H](C)O)C(=O)N4CCC[C@H]4C(=O)N4C[C@H](O)C[C@H]4C(=O)N[C@@H](Cc4c[nH]c5ccccc45)C(=O)N[C@H](C(N)=O)CSCCC6=O)nn3)C(N)=O)NC1=O)C(=O)CCSC[C@H](NC(=O)[C@H](C)NC(C)=O)C(=O)N[C@@H]([C@@H](C)CC)C(=O)N[C@@H](CCC(=O)O)C(=O)N[C@@H](CCC(=O)O)C(=O)NCC(=O)N[C@@H](CCC(N)=O)C(=O)N[C@@H](Cc1ccc(O)cc1)C(=O)N2` [BCY9407]: the response was half-maximal at 3.4 nM (EC50) and the “Fold Induction over Background” value stood at 29 fold.

Regarding `CCCC[C@@H]1NC(=O)[C@H](Cc2ccc(O)cc2)NC(=O)[C@@H]2CCCN2C(=O)[C@H](CC(=O)O)NC(=O)[C@H](C)NC(=O)[C@H](Cc2ccccc2)NC(=O)[C@@H]2CSCCC(=O)N3CN(CN(C3)C(=O)CCSC[C@@H](C(=O)N[C@@H](CNC(=O)CCOCCOCCOCCOCCOCCOCCOCCOCCOCCOCCOCCOCCOCCOCCOCCOCCOCCOCCOCCOCCOCCOCCOCCOCCOCCC(=O)N[C@H]3CSCCC(=O)N4CN5CN(C4)C(=O)CCSC[C@H](NC(=O)[C@@H](CC(=O)O)NC(=O)[C@H](Cc4cccc6ccccc46)NC(=O)[C@@H]4CCCN4C3=O)C(=O)N[C@@H](CCSC)C(=O)N[C@@H](CCCCNC(=N)N)C(=O)N[C@@H](CC(=O)O)C(=O)N[C@@H](Cc3c[nH]c4ccccc34)C(=O)N[C@@H](CO)C(=O)N[C@@H]([C@@H](C)O)C(=O)N3CCC[C@H]3C(=O)N3C[C@H](O)C[C@H]3C(=O)N[C@@H](Cc3c[nH]c4ccccc34)C(=O)N[C@H](C(N)=O)CSCCC5=O)C(N)=O)NC1=O)C(=O)CCSC[C@H](NC(=O)[C@H](C)NC(C)=O)C(=O)N[C@@H]([C@@H](C)CC)C(=O)N[C@@H](CCC(=O)O)C(=O)N[C@@H](CCC(=O)O)C(=O)NCC(=O)N[C@@H](CCC(N)=O)C(=O)N[C@@H](Cc1ccc(O)cc1)C(=O)N2` [BCY9759], the “Fold Induction over Background” value is given as 15 fold.

For the compound `CCCC[C@@H]1NC(=O)[C@H](Cc2ccc(O)cc2)NC(=O)[C@@H]2CCCN2C(=O)[C@H](CC(=O)O)NC(=O)[C@H](C)NC(=O)[C@H](Cc2ccccc2)NC(=O)[C@@H]2CSCCC(=O)N3CN(CN(C3)C(=O)CCSC[C@@H](C(=O)N[C@@H](CNC(=O)CCc3cn(CCOCCOCCOCCOCCOCCC(=O)N[C@H]4CSCCC(=O)N5CN6CN(C5)C(=O)CCSC[C@H](NC(=O)[C@@H](CC(=O)O)NC(=O)[C@H](Cc5cccc7ccccc57)NC(=O)[C@@H]5CCCN5C4=O)C(=O)N[C@@H](CCSC)C(=O)N[C@@H](CCCCNC(=N)N)C(=O)N[C@@H](CC(=O)O)C(=O)N[C@@H](Cc4c[nH]c5ccccc45)C(=O)N[C@@H](CO)C(=O)N[C@@H]([C@@H](C)O)C(=O)N4CCC[C@H]4C(=O)N4C[C@H](O)C[C@H]4C(=O)N[C@@H](Cc4c[nH]c5ccccc45)C(=O)N[C@H](C(N)=O)CSCCC6=O)nn3)C(N)=O)NC1=O)C(=O)CCSC[C@H](NC(C)=O)C(=O)N[C@@H](CC(C)(C)C)C(=O)N1CCC[C@H]1C(=O)N[C@@H](CCC(=O)O)C(=O)N[C@H](C)C(=O)N1CCC[C@H]1C(=O)N[C@@H](Cc1ccc(O)cc1)C(=O)N2` [BCY10573], it took 0.9 nM to reach a half-maximal effect (EC50) and the “Fold Induction over Background” value came out at 55 fold.
